Experimental findings from US20230172923A1, “METHODS OF TREATING CYTOKINE-RELATED ADVERSE EVENTS” (BRISTOL-MYERS SQUIBB COMPANY, priority 2020, published 2023) are described below.

Holding throughout (format): cell-based, human
In one experiment the test system is IL-6. Put plainly: LPS-stimulated PBMC cytokine production, multiplex cytokine analysis: IL-6. The settings on record: PBMC 2×10^6 cells/ml, compound 1 hour, then 1 ng/ml LPS 18 hours. The protocol:
(§1) Peripheral blood mononuclear cells (PBMCs) were isolated from the blood of healthy human donors by Ficoll cell separation. […] Supernatant samples were subjected to multiplex cytokine analysis (Luminex IS100 instrument) to quantify secreted levels of IL-6, IL-8, IL1-beta (IL-1β), GM-CSF, MDC, MIP-1alpha (MIP-1α), MIP-1beta (MIP-1β) and TNF-alpha (TNF-α) (see e.g. FIGS. 7A-C). IC50 (half maximal inhibitory concentration) values were calculated to measure the potency of each IMiD compound in inhibiting LPS-stimulated secretion of each cytokine (see Table 25).

The next experiment has as its system IL-8. Description: LPS-stimulated PBMC cytokine production, multiplex cytokine analysis: IL-8. The settings on record: PBMC 2×10^6 cells/ml, compound 1 hour, then 1 ng/ml LPS 18 hours. The protocol:
(§2) Peripheral blood mononuclear cells (PBMCs) were isolated from the blood of healthy human donors by Ficoll cell separation. The PBMCs were seeded at a concentration of 2×10^6 cells/ml and treated for 1 hour at 37° C. with various concentrations of IMiD compounds or control DMSO (0.25%), before stimulation with 1 ng/ml LPS for 18 hours at 37° C.
(§3) Supernatant samples were subjected to multiplex cytokine analysis (Luminex IS100 instrument) to quantify secreted levels of IL-6, IL-8, IL1-beta (IL-1β), GM-CSF, MDC, MIP-1alpha (MIP-1α), MIP-1beta (MIP-1β) and TNF-alpha (TNF-α) (see e.g. FIGS. 7A-C).
(§4) IC50 (half maximal inhibitory concentration) values were calculated to measure the potency of each IMiD compound in inhibiting LPS-stimulated secretion of each cytokine (see Table 25).

The next experiment deals with IL-1β. Put plainly: LPS-stimulated PBMC cytokine production, multiplex cytokine analysis: IL-1β. To be noted: PBMC 2×10^6 cells/ml, compound 1 hour, then 1 ng/ml LPS 18 hours. The protocol:
as §1

In another experiment the test system is GM-CSF. Description: LPS-stimulated PBMC cytokine production, multiplex cytokine analysis: GM-CSF. To be noted: PBMC 2×10^6 cells/ml, compound 1 hour, then 1 ng/ml LPS 18 hours. As for the experimental part: as §1
Another experiment concerns MDC. Description: LPS-stimulated PBMC cytokine production, multiplex cytokine analysis: MDC. To be noted: PBMC 2×10^6 cells/ml, compound 1 hour, then 1 ng/ml LPS 18 hours. As for the experimental part: as §1
A further experiment concerns MIP-1α. Put plainly: LPS-stimulated PBMC cytokine production, multiplex cytokine analysis: MIP-1α. To be noted: PBMC 2×10^6 cells/ml, compound 1 hour, then 1 ng/ml LPS 18 hours. As for the experimental part:
as §2, §3, §4

The next experiment relates to MIP-1β. Put plainly: LPS-stimulated PBMC cytokine production, multiplex cytokine analysis: MIP-1β. The settings on record: PBMC 2×10^6 cells/ml, compound 1 hour, then 1 ng/ml LPS 18 hours. As for the experimental part:
as §1

In another experiment the test system is TNF-α. Put plainly: LPS-stimulated PBMC cytokine production, multiplex cytokine analysis: TNF-α. To be noted: PBMC 2×10^6 cells/ml, compound 1 hour, then 1 ng/ml LPS 18 hours. As for the experimental part:
as §2, §3, §4

Experiment [1] has as its system IL-6, IL-8, IL-1β, GM-CSF, MDC, MIP-1α, MIP-1β and TNF-α. Description: LPS-induced secretion of proinflammatory cytokines from PBMCs (whole multiplex panel, result in words). To be noted: pre-treatment 1 hour, 1 ng/ml LPS 18 hours. The protocol:
Peripheral blood mononuclear cells (PBMCs) from healthy volunteers were seeded at a concentration of 2×10^6 cells/ml and treated with the indicated concentrations of IMiD compounds or control DMSO (0.25%) for 1 hour, before stimulation with 1 ng/ml LPS. After 18 hours, proinflammatory cytokine levels in the supernatant were assessed by multiplex cytokine analysis.
as §2, §3

A value given as a limit tells only on which side of the number the result lay.

A word on the IC50: it is the concentration at which inhibition is half-maximal. A low value points to inhibition by little substance. Regarding `O=C1CCC(N2Cc3c(OCc4ccc(CN5CCOCC5)cc4)cccc3C2=O)C(=O)N1` (single isomer, unassigned) [Compound A], the IC50 in the experiment on IL-6 is 0.01 µM; in the experiment with IL-8 (Homo sapiens), above 10 µM; in the experiment with IL-1β, 0.00085 µM; in the experiment on GM-CSF, 0.0092 µM; in the experiment with MDC, 0.0026 µM; in the experiment with MIP-1α, 0.19 µM. Also, the IC50 was above 10 µM in the experiment on MIP-1β (Homo sapiens) and 0.0018 µM in the experiment on TNF-α. Besides, the “LPS-induced secretion of proinflammatory cytokines from PBMCs (effect in words)” value (from here on “LPS-induced secretion”) in experiment [1] was “inhibited”.
`O=C1CCC(N2Cc3c(OCc4ccc(CN5CCOCC5)cc4)cccc3C2=O)C(=O)N1` (single isomer, unassigned) [Compound B]: the IC50 in the experiment with IL-6 was 0.083 µM; in the experiment with IL-8, above 10 µM; in the experiment on IL-1β it was 0.0062 µM; with GM-CSF, 0.039 µM; in the experiment on MDC, 0.012 µM; with MIP-1α it was 0.45 µM. Further, the IC50 in the experiment on MIP-1β is above 10 µM; in the experiment on TNF-α, 0.0095 µM. Besides, the “LPS-induced secretion” value in [1] is reported as “inhibited”.
With `Cc1nc2cccc(N)c2c(=O)n1C1CCC(=O)NC1=O` (stereo not shown) [Avadomide, 3-(5-amino-2-methyl-4-oxo-3,4-dihydroquinazolin-3-yl)piperidine-2,6-dione], the IC50 with IL-6 (Homo sapiens) is 0.06 µM; in the experiment on IL-8 (Homo sapiens), above 10 µM; with IL-1β (Homo sapiens) it was 0.054 µM; in the experiment with MIP-1α (Homo sapiens, PBMC), 0.3 µM; in the experiment with MIP-1β (Homo sapiens), above 10 µM; with TNF-α (Homo sapiens), 0.034 µM. In addition, the “LPS-induced secretion” value in [1] is on record as “inhibited”.
On to `O=C1CCC(N2C(=O)c3ccccc3C2=O)C(=O)N1` (stereo not shown) [Thalidomide, 2-(2,6-dioxopiperidin-3-yl)-2,3 dihydro-1H-isoindole-1,3-dione], for which the IC50 was above 10 µM in the experiment with IL-6 (Homo sapiens, PBMC); above 10 µM in the experiment on IL-8 (Homo sapiens); above 10 µM with IL-1β (Homo sapiens, PBMC); above 10 µM in the experiment on GM-CSF (Homo sapiens, PBMC); above 10 µM in the experiment with MDC (Homo sapiens, PBMC); above 10 µM with MIP-1α (Homo sapiens, PBMC). In addition, the IC50 is above 10 µM in the experiment on MIP-1β (Homo sapiens) and above 10 µM with TNF-α (Homo sapiens, PBMC). In [1], the “LPS-induced secretion” value is recorded as “minimal to no effect”.
